The results in this text go back to ChEMBL document CHEMBL3632570, “Structure-Guided Design of Novel l-Cysteine Derivatives as Potent KSP Inhibitors” (ACS Med Chem Lett, 2015).

For data set [1], the system named is HCT-116. Nature of the data set: Growth inhibition of human HCT116 cells after 72 hrs by MTS assay. In kind it is functional, cell-based. The settings on record: HCT-116, 72 h.
Data set [2] addresses T1, Kinesin-like protein KIF11 (Homo sapiens, UniProt P52732).
T1 sequence (P52732 whole entry): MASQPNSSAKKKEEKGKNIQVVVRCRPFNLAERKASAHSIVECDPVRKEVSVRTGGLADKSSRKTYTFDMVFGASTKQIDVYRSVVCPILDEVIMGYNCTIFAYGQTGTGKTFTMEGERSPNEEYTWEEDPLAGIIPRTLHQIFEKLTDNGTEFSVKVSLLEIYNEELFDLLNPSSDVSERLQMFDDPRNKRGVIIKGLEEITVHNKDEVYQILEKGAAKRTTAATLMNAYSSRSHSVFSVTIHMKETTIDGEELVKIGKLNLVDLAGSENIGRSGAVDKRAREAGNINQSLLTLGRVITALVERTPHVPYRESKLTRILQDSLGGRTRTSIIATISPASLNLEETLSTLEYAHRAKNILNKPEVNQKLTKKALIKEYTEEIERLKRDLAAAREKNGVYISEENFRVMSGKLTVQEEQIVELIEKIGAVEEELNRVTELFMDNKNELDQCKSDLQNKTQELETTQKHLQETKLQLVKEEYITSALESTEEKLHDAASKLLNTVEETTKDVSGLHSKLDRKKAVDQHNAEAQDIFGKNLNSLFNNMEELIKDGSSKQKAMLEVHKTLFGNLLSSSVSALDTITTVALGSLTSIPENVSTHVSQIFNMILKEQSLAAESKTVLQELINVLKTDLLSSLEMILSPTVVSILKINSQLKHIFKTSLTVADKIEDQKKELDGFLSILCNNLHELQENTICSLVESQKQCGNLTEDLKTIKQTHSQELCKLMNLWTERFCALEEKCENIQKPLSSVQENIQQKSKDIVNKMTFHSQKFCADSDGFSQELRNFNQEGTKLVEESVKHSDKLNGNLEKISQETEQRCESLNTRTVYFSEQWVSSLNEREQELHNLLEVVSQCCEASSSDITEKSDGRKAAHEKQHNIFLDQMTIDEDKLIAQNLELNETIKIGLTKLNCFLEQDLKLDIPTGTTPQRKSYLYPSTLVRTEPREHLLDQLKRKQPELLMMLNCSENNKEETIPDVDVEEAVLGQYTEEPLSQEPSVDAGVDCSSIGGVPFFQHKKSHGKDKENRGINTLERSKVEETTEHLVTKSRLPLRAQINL
Nature of the data set: Inhibition of His-tagged KSP motor domain (1 to 369) (unknown origin) assessed as inhibition of microtubule-stimulated KSP ATPase activity preincuabted for 30 mins followed by ATP addition measured after 15 mins by Kinase-Glo assay.

Data set [3] concerns HCT-116. Nature of the data set: Antitumor activity against human HCT116 cells xenografted in athymic nude BALB/cAJcL mouse assessed as inhibition of tumor growth at 25 mg/kg, iv administered on days 1,3,5,8,10 and 12 measured on day 15. The class given is functional.
Data set [4] relates to HCT-116. The data set is described as follows: Antitumor activity against human HCT116 cells xenografted in athymic nude BALB/cAJcL mouse assessed as inhibition of tumor growth at 75 mg/kg, iv administered on days 1,3,5,8,10 and 12 measured on day 15. In kind it is functional.
For data set [5], the target named is T2, Kinesin-like protein KIF11 (Homo sapiens) (UniProt P52732).
T2 sequence (whole entry): T1 sequence (P52732 whole entry)
Description: Binding affinity to KSP motor domain (unknown origin) assessed as change in melting temperature at 100 uM by differential scanning fluorimetry in presence of 1 mM ATP

In data set [6] the test system is Mus musculus. Nature of the data set: Toxicity in athymic nude BALB/cAJcL mouse xenografted with HCT116 cells assessed as mortality at 75 mg/kg, iv administered on days 1,3,5,8,10 and 12. The class given is organism-based, HCT-116. The settings on record: in vivo.
The subject of data set [7] is HCT-116. Nature of the data set: Antitumor activity against human HCT116 cells xenografted in iv dosed athymic nude BALB/cAJcL mouse assessed as inhibition of tumor growth drug administered on days 1,3,5,8,10 and 12 measured on day 15. The class given is functional, organism-based.
The subject of data set [8] is Mus musculus. Nature of the data set: Toxicity in athymic nude BALB/cAJcL mouse xenografted with HCT116 cells assessed as mortality at 150 mg/kg, iv administered on days 1,3,5,8,10 and 12. The class given is organism-based, HCT-116. The settings on record: in vivo.
In data set [9] the test system is Mus musculus. Nature of the data set: Toxicity in athymic nude BALB/cAJcL mouse xenografted with HCT116 cells assessed as mortality at 25 mg/kg, iv administered on days 1,3,5,8,10 and 12. The class given is organism-based, HCT-116. The settings on record: in vivo.
Data set [10] concerns HCT-116. Nature of the data set: Antitumor activity against human HCT116 cells xenografted in athymic nude BALB/cAJcL mouse assessed as inhibition of tumor growth at 150 mg/kg, iv administered on days 1,3,5,8,10 and 12 measured on day 15. In kind it is functional.
Data set [11] concerns Mus musculus. The data set is described as follows: Toxicity in athymic nude BALB/cAJcL mouse xenografted with HCT116 cells assessed as body weight loss at 25 mg/kg, iv administered on days 1,3,5,8,10 and 12 relative to vehicle-treated control. The class given is organism-based, HCT-116. The settings on record: in vivo.
The subject of data set [12] is HeLa. Nature of the data set: Cell cycle arrest at mitotic phase in human HeLa cells assessed as mitotic index after 6 hrs. The class given is functional.
In data set [13] the test system is Mus musculus. Nature of the data set: Toxicity in athymic nude BALB/cAJcL mouse xenografted with HCT116 cells assessed as mortality at 10 mg/kg, iv administered on days 1,3,5,8,10 and 12. In kind it is organism-based, HCT-116. The conditions noted are these: in vivo.
Data set [14] has as its system HCT-116. Nature of the data set: Antitumor activity against human HCT116 cells xenografted in athymic nude BALB/cAJcL mouse assessed as inhibition of tumor growth at 10 mg/kg, iv administered on days 1,3,5,8,10 and 12 measured on day 15. The class given is functional.
Data set [15] relates to HeLa. The data set is described as follows: Cell cycle arrest at mitotic phase in human HeLa cells assessed as formation of monopolar spindles at 40 nM after 6 hrs by DAPI staining-based microscopic analysis. The class given is functional.

The source made the active and inactive calls. No cut-off for these calls is given here. A value given as a limit tells only on which side of the number the result lay.

Take `Cc1ccc(C(=O)N(CCCN)[C@@H](c2nc3cc(Cl)ccc3c(=O)n2Cc2ccccc2)C(C)C)cc1` [ISPINESIB]: the midpoint of inhibition with HCT-116 [1], the IC50, lay at 1.1 nM.

In the case of `N[C@@H](CSC1(c2cccc(Cl)c2)c2ccccc2CCc2ccccc21)C(=O)O`, the IC50 in data set [2] turned out to be 160 nM; in the data set with HCT-116 [1], 637 nM.

Regarding `N[C@@H](CSC1(c2ccc(C(F)(F)F)cc2)c2ccccc2Sc2ccccc21)C(=O)O`, the IC50 in data set [2] was above 20000 nM; in the data set with HCT-116 [1], above 10000 nM.

Consider `N[C@@H](CSC1(c2ccc(Oc3ccccc3)cc2)c2ccccc2CCc2ccccc21)C(=O)O`, for which the IC50 is 306 nM in data set [2] and 291 nM in the data set on HCT-116 [1].

For the compound `N[C@@H](CSC1(c2ccccc2)c2ccccc2CCc2ccccc21)C(=O)O`, the IC50 in data set [2] came to 209 nM; in the data set on HCT-116 [1], 325 nM. Also, the figures for the T/C in the data set on HCT-116 [3], in the data set with HCT-116 [4] and in the data set with HCT-116 [10] were 62%, 43% and 23%, respectively. Further, the ΔTm in data set [5] amounted to 8 °C. Also, the Activity result with Mus musculus [6] was “Non-toxic”; in the data set with Mus musculus [8] it was “Non-toxic”; in the data set on Mus musculus [9] it was “Non-toxic”; with Mus musculus [11] it was “Toxic”. Further, the TGI result with HCT-116 [7] is “Dose-dependent effect”.

Turning to `CON(C)C(=O)N1N=C(c2cc(F)ccc2F)S[C@@]1(CCCN)c1ccccc1` [FILANESIB], the IC50 in data set [2] worked out at 18 nM; in the data set with HCT-116 [1] it was 0.7 nM.

The compound `N[C@@H](CSC(c1ccccc1)(c1ccccc1)c1ccccc1)C(=O)O` [S-TRITYL-L-CYSTEINE] yielded an IC50 with HCT-116 [1] of 910 nM.

With `N[C@@H](CSC1(c2ccc(C(F)(F)F)cc2)c2ccccc2C=Cc2ccccc21)C(=O)O`, the IC50 in data set [2] was determined as 36 nM; with HCT-116 [1], 5 nM. The MI50 in the data set on HeLa [12] was 12 nM. The T/C in the data set on HCT-116 [3] was found to be 12%; in the data set with HCT-116 [14], 31%. The Activity entry in the data set on Mus musculus [13] and in the data set on Mus musculus [9] was “Non-toxic” each time. Moreover, the TGI entry in the data set with HCT-116 [7] was “Dose-dependent effect”. Also, the result in the data set with HeLa [15] was Active.

Take `N[C@@H](CSC1(c2ccc(C(F)(F)F)cc2)c2ccccc2COc2ccccc21)C(=O)O` (mixture of isomers): the half-inhibitory concentration (IC50) in [2] was found to be 75 nM; in the data set with HCT-116 [1] it was 76 nM.

Consider `N[C@@H](CSC1(c2ccc(Cl)cc2)c2ccccc2C=Cc2ccccc21)C(=O)O`, for which the results for the IC50 (in data set [2]; in the data set with HCT-116 [1]) were 12 nM and 3.9 nM, respectively.

With `Cc1ccc(C2(SC[C@H](N)C(=O)O)c3ccccc3CCc3ccccc32)cc1`, the IC50 in [2] came out at 9.3 nM; in the data set on HCT-116 [1], 25 nM. Moreover, the T/C in the data set with HCT-116 [3] worked out at 19%. In the data set on Mus musculus [9], the Activity result is listed as “Non-toxic”.

For the compound `CC(C)(C)c1ccc(C2(SC[C@H](N)C(=O)O)c3ccccc3CCc3ccccc32)cc1`, the half-maximal inhibitory concentration (IC50) in data set [2] was 301 nM; in the data set on HCT-116 [1] it was 234 nM.

`N[C@@H](CSC1(c2cccc(C(F)(F)F)c2)c2ccccc2CCc2ccccc21)C(=O)O`: the IC50 was 238 nM in [2] and 123 nM in the data set on HCT-116 [1].

As for `N[C@@H](CSC1(c2ccc(Cl)cc2)c2ccccc2CCc2ccccc21)C(=O)O`, the IC50 worked out at 11 nM in data set [2] and 41 nM in the data set on HCT-116 [1]. In addition, the T/C in the data set on HCT-116 [3] is on record as 11%. Further, the values for the Activity entry in the data set with Mus musculus [9] and with Mus musculus [11] were “Non-toxic” and “Toxic”, respectively.

With `N[C@@H](CSC1(c2ccc(C(F)(F)F)cc2)c2ccccc2Oc2ccccc21)C(=O)O`, the IC50 in [2] was above 20000 nM; in the data set with HCT-116 [1], above 10000 nM.

As for `N[C@@H](CSC1(c2ccccc2)c2ccccc2CCSc2ccccc21)C(=O)O` (mixture of isomers), the IC50 in data set [2] is above 20000 nM; in the data set on HCT-116 [1] it was above 10000 nM.

On to `N[C@@H](CSC(c1ccccc1)(c1ccccc1)c1ccc(C(F)(F)F)cc1)C(=O)O`, for which the figures for the IC50 (in [2]; in the data set on HCT-116 [1]) were 262 nM and 216 nM, respectively.

`N[C@@H](CSC1(c2ccc(-c3ccccc3)cc2)c2ccccc2CCc2ccccc21)C(=O)O`: the IC50 in data set [2] was found to be 1060 nM; in the data set with HCT-116 [1], 1300 nM.

Take `N[C@@H](CSC1(c2ccc(-c3ccccc3)cc2)c2ccccc2C=Cc2ccccc21)C(=O)O`: the IC50 in data set [2] was found to be 1400 nM; in the data set on HCT-116 [1], 395 nM.

For the compound `COc1ccc(C2(SC[C@H](N)C(=O)O)c3ccccc3C=Cc3ccccc32)cc1`, the IC50 in data set [2] was 8.6 nM; with HCT-116 [1], 2.6 nM. The ΔTm in data set [5] is 12.5 °C.

Turning to `COc1ccc(C(SC[C@H](N)C(=O)O)(c2ccccc2)c2ccccc2)cc1`, the ΔTm in data set [5] was 9 °C. Half-maximal inhibition with HCT-116 [1] (IC50) required 213 nM.

As to `N[C@@H](CSC1(c2ccc(C(F)(F)F)cc2)c2ccccc2CSc2ccccc21)C(=O)O` (mixture of isomers), the IC50 stood at 61 nM in data set [2] and 15 nM in the data set on HCT-116 [1].

For `Cc1ccccc1C1(SC[C@H](N)C(=O)O)c2ccccc2CCc2ccccc21`, the IC50 in [2] was 7800 nM; in the data set on HCT-116 [1], 4590 nM.

For the compound `Cc1ccc(C2(SC[C@H](N)C(=O)O)c3ccccc3C=Cc3ccccc32)cc1`, the IC50 was 14 nM in [2] and 3.4 nM in the data set with HCT-116 [1].
